Patent US10759793B2, “2-(pyrazolopyridin-3-yl)pyrimidine derivatives as JAK inhibitors” (ALMIRALL, S.A., priority 2015, dated 2020)

Columns and labels:
Assay type in all cases: biochemical
JAK3 = JAK3 (Homo sapiens (Human), UniProt P52333); experiment: In vitro JAK kinase assay (TR-FRET), JAK3; details: catalytic domain aa 795-1124, GST-fusion; ATP 0.6 μM; peptide 140 nM; 30 minutes at room temperature
Method: (§1) Compounds were screened for their ability to inhibit JAK1, JAK2 and JAK3 using the assays as indicated below. […] The enzymatic activity was assayed using as substrate a biotinylated peptide, poly (GT)-Biotin (CisBio). […] The degree of phosphorylation was detected by TR-FRET (time-resolved fluorescence energy transfer). […] The enzymatic reactions took place for 30 minutes at room temperature. […] Incubate for 3 h and read on Victor 2V spectrofluorometer (Perkin Elmer) set to read fluorescence resonance energy transfer.

JAK1 = JAK1 (Homo sapiens (Human), UniProt P23458); experiment: In vitro JAK kinase assay (TR-FRET), JAK1; details: catalytic domain aa 850-1154, GST-fusion; ATP 3 μM; peptide 60 nM; 30 minutes at room temperature
Method: as §1

JAK2 = JAK2 (Homo sapiens (Human), UniProt O60674); experiment: In vitro JAK kinase assay (TR-FRET), JAK2; details: catalytic domain aa 826-1132, GST-fusion; ATP 0.2 μM; peptide 20 nM; 30 minutes at room temperature
Method: as §1

Sequence of JAK2 (O60674 826-1132): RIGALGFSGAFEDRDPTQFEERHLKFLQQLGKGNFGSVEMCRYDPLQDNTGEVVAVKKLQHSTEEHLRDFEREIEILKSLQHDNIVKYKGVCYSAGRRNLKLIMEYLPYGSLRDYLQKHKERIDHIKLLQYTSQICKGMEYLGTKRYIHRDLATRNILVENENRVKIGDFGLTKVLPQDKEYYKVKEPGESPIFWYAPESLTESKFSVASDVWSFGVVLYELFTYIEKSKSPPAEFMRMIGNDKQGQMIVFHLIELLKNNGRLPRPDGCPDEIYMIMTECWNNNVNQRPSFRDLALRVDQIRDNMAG
Sequence of JAK3 (P52333 795-1124): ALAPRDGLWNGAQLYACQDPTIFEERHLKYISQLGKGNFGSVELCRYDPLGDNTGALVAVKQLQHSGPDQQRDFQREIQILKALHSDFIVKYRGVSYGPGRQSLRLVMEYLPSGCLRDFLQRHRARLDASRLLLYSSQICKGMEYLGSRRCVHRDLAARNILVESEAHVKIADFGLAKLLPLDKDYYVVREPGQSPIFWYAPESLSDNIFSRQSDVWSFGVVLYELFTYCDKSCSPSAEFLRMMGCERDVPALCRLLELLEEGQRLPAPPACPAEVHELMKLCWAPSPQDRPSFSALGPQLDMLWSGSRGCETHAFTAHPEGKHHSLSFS
Sequence of JAK1 (P23458 850-1154): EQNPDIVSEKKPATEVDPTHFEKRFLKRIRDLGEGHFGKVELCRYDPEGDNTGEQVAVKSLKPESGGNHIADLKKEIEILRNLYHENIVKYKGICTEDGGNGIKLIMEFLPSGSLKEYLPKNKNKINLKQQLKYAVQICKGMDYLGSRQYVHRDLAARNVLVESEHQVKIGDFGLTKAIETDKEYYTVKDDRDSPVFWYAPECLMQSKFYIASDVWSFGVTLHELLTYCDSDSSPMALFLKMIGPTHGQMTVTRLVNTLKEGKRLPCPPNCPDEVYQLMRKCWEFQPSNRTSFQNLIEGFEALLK

| IC50 (JAK3) [nM] | IC50 (JAK1) [nM] | IC50 (JAK2) [nM] | Compound |
| --- | --- | --- | --- |
| 2 | 2 | 0.3 | COc1ccc(-c2nc(-c3cnn4ccccc34)nc(N[C@@H]3CCCN(C(=O)CC#N)C3)c2F)cn1 [Example 19, 3-((3R)-3-{[5-fluoro-6-(6-methoxypyridin-3-yl)-2-pyrazolo[1,5-a]pyridin-3-ylpyrimidin-4-yl]amino}piperidin-1-yl)-3-oxopropanenitrile] |
| 1 | 1 | 0.5 | Cc1cc(-c2nc(-c3cnn4ccccc34)nc(N[C@@H]3CCCN(C(=O)CC#N)C3)c2F)ccn1 [Example 20, 3-((3R)-3-{[5-fluoro-6-(2-methylpyridin-4-yl)-2-pyrazolo[1,5-a]pyridin-3-ylpyrimidin-4-yl]amino}piperidin-1-yl)-3-oxopropanenitrile] |
| 11 | 6 | 1 | Cc1cc(-c2nc(-c3cnn4ccccc34)nc(N(C)[C@@H]3CCCN(C(=O)CC#N)C3)c2F)ccn1 [Example 21, 3-{(3R)-3-[[5-fluoro-6-(2-methylpyridin-4-yl)-2-pyrazolo[1,5-a]pyridin-3-ylpyrimidin-4-yl](methyl)amino]piperidin-1-yl}-3-oxopropanenitrile] |
| 4 | 7 | 0.7 | O=C(CO)N1CCC[C@@H](Nc2nc(-c3cnn4ccccc34)nc(N3CCC(O)CC3)c2F)C1 [Example 22, 1-(5-Fluoro-6-{[(3R)-1-glycoloylpiperidin-3-yl]amino}-2-pyrazolo[1,5-a]pyridin-3-ylpyrimidin-4-yl)piperidin-4-ol] |
| 5 | 8 | 1 | O=C(CO)N1CCC[C@@H](Nc2nc(-c3cnn4ccccc34)nc(N3CCC(CO)CC3)c2F)C1 [Example 23, 2-[(3R)-3-({5-Fluoro-6-[4-(hydroxymethyl)piperidin-1-yl]-2-pyrazolo[1,5-a]pyridin-3-ylpyrimidin-4-yl}amino)piperidin-1-yl]-2-oxoethanol] |
| 2 | 22 | 0.6 | CN1CCN(c2nc(-c3cnn4ccccc34)nc(N[C@@H]3CCCN(C(=O)CO)C3)c2F)CC1 [Example 25, 2-((3R)-3-{[5-fluoro-6-(4-methylpiperazin-1-yl)-2-pyrazolo[1,5-a]pyridin-3-ylpyrimidin-4-yl]amino}piperidin-1-yl)-2-oxoethanol] |
| 30 | 26 | 4 | Cc1c(N[C@@H]2CCCN(C(=O)CO)C2)nc(-c2cnn3ccccc23)nc1N1CCOCC1 [Example 26, 2-{(3R)-3-[(5-Methyl-6-morpholin-4-yl-2-pyrazolo[1,5-a]pyridin-3-ylpyrimidin-4-yl)amino]piperidin-1-yl}-2-oxoethanol] |
| 3 | 19 | 0.7 | COCCOc1nc(-c2cnn3ccccc23)nc(N[C@@H]2CCCN(C(=O)CO)C2)c1C [Example 27, 2-((3R)-3-{[6-(2-Methoxyethoxy)-5-methyl-2-pyrazolo[1,5-a]pyridin-3-ylpyrimidin-4-yl]amino}piperidin-1-yl)-2-oxoethanol] |
| 3 | 5 | 0.8 | CCOC(=O)C1(C)CCN(c2nc(-c3cnn4ccccc34)nc(N[C@@H]3CCCN(C(=O)CO)C3)c2F)CC1 [Example 28, Ethyl 1-(5-fluoro-6-{[(3R)-1-glycoloylpiperidin-3-yl]amino}-2-pyrazolo[1,5-a]pyridin-3-ylpyrimidin-4-yl)-4-methylpiperidine-4-carboxylate] |
| 10 | 27 | 4 | Cc1ccn2ncc(-c3nc(N[C@@H]4CCCN(C(=O)CO)C4)c(F)c(N4CCOCC4)n3)c2c1 [Example 29, 2-((3R)-3-{[5-Fluoro-2-(5-methylpyrazolo[1,5-a]pyridin-3-yl)-6-morpholin-4-ylpyrimidin-4-yl]amino}piperidin-1-yl)-2-oxoethanol] |
